PubChem BioAssay AID248 (DTP/NCI, 2004)
Several values for one entry are separate records, joined by “and”; a condition that tells them apart may be missing. Equal values may be shown once. Inconclusive results and toxic doses are left out. No stated cut-off is given here; in the data, active means T/C of 150% or more; inactive means T/C below 125%.

Tested on: L1210 leukemia ip in BDF1 mice, survival T/C
Assay: NCI In Vivo Anticancer Drug Screen. Data for tumor model L1210 Leukemia (intraperitoneal) in B6D2F1 (BDF1) mice
Details: endpoint: mean survival time, higher = longer survival
Procedure, shortened: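 Transplantable tumor model; survival measured in treated vs vehicle control mice. Value = treated/control.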

[1] = dose: 100.0 mg/kg/injection, schedule: Q01DX001 (ip), vehicle: carboxymethylcellulose (CMC)
[2] = dose: 200.0 mg/kg/injection, schedule: Q01DX001 (ip), vehicle: carboxymethylcellulose (CMC)
[3] = dose: 400.0 mg/kg/injection, schedule: Q01DX001 (ip), vehicle: carboxymethylcellulose (CMC)
[4] = dose: 100.0 mg/kg/injection, schedule: Q04DX003 (ip), vehicle: saline with Tween-80
[5] = dose: 200.0 mg/kg/injection, schedule: Q04DX003 (ip), vehicle: saline with Tween-80
[6] = dose: 400.0 mg/kg/injection, schedule: Q04DX003 (ip), vehicle: saline with Tween-80
[7] = dose: 100.0 mg/kg/injection, schedule: Q04DX003 (ip), vehicle: Klucel (hydroxypropylcellulose) (HPC)
[8] = dose: 200.0 mg/kg/injection, schedule: Q04DX003 (ip), vehicle: Klucel (hydroxypropylcellulose) (HPC)
[9] = dose: 50.0 mg/kg/injection, schedule: Q01DX009 (ip), vehicle: other
[10] = dose: 100.0 mg/kg/injection, schedule: Q01DX009 (ip), vehicle: other
[11] = dose: 200.0 mg/kg/injection, schedule: Q01DX009 (ip), vehicle: other
[12] = dose: 100.0 mg/kg/injection, schedule: Q01DX009 (ip), vehicle: saline with Tween-80
[13] = dose: 200.0 mg/kg/injection, schedule: Q01DX009 (ip), vehicle: saline with Tween-80
[14] = dose: 400.0 mg/kg/injection, schedule: Q01DX009 (ip), vehicle: saline with Tween-80
[15] = dose: 100.0 mg/kg/injection, schedule: Q01DX009 (ip), vehicle: saline
[16] = dose: 100.0 mg/kg/injection, schedule: Q04DX003 (ip), vehicle: saline
[17] = dose: 200.0 mg/kg/injection, schedule: Q01DX009 (ip), vehicle: saline
[18] = dose: 200.0 mg/kg/injection, schedule: Q04DX003 (ip), vehicle: saline
[19] = dose: 400.0 mg/kg/injection, schedule: Q04DX003 (ip), vehicle: saline

Measured: T/C

Cc1ccc(C2CCCCC2OS(C)(=O)=O)cc1 (configuration not stated)
inactive: [1] 95 % of control | [2] 92 % of control | [3] 97 % of control

Cc1ccc(N=Cc2cc(I)cc(I)c2O)cc1.Cc1ccc(N=Cc2cc(I)cc(I)c2O)cc1.[Co]
inactive: [4] 92 % of control | [5] 102 % of control and 91 % of control | [6] 96 % of control and 89 % of control

CCCCSP(Cc1ccccc1)SCCCC
inactive: [7] 96 % of control | [8] 94 % of control

NC(N)=N/N=C(\C=C\C=C(c1ccc(Cl)cc1)c1ccc(Cl)cc1)c1ccc(Cl)cc1
inactive: dose: 12.5 mg/kg/injection, schedule: Q04DX003 (ip), vehicle: saline 95 % of control | dose: 25.0 mg/kg/injection, schedule: Q04DX003 (ip), vehicle: saline 95 % of control | dose: 50.0 mg/kg/injection, schedule: Q04DX003 (ip), vehicle: saline 91 % of control

CC(Oc1ccccc1)C(=O)NC(=S)Nc1cc(C(F)(F)F)ccc1Cl (configuration not stated)
inactive: [9] 101 % of control and 103 % of control | dose: 100.0 mg/kg/injection, schedule: Q01DX001 (ip), vehicle: other 105 % of control | [10] 100 % of control and 92 % of control | dose: 100.0 mg/kg/injection, schedule: Q04DX002 (ip), vehicle: other 97 % of control and 110 % of control | dose: 200.0 mg/kg/injection, schedule: Q01DX001 (ip), vehicle: other 100 % of control | [11] 95 % of control and 92 % of control | dose: 200.0 mg/kg/injection, schedule: Q04DX002 (ip), vehicle: other 98 % of control and 106 % of control | dose: 400.0 mg/kg/injection, schedule: Q01DX001 (ip), vehicle: other 94 % of control | dose: 400.0 mg/kg/injection, schedule: Q01DX009 (ip), vehicle: other 87 % of control | dose: 400.0 mg/kg/injection, schedule: Q04DX002 (ip), vehicle: other 97 % of control and 116 % of control

CCN(N=O)C(=O)NC1C(O)OC(CO)C(O)C1O (configuration not stated)
inactive: dose: 25.0 mg/kg/injection, schedule: Q01DX009 (ip), vehicle: other 100 % of control | [9] 118 % of control | [10] 113 % of control | [11] 112 % of control

c1ccc(OCc2ccc(COc3ccccc3)cc2)cc1
inactive: dose: 25.0 mg/kg/injection, schedule: Q01DX009 (ip), vehicle: Klucel (hydroxypropylcellulose) (HPC) 98 % of control | dose: 25.0 mg/kg/injection, schedule: Q04DX003 (ip), vehicle: Klucel (hydroxypropylcellulose) (HPC) 97 % of control | dose: 50.0 mg/kg/injection, schedule: Q01DX009 (ip), vehicle: Klucel (hydroxypropylcellulose) (HPC) 92 % of control | dose: 50.0 mg/kg/injection, schedule: Q04DX003 (ip), vehicle: Klucel (hydroxypropylcellulose) (HPC) 94 % of control | dose: 100.0 mg/kg/injection, schedule: Q01DX009 (ip), vehicle: Klucel (hydroxypropylcellulose) (HPC) 95 % of control | [7] 92 % of control

[Cl][Hg][c]1ccccc1N=Nc1ccccc1
inactive: dose: 3.0 mg/kg/injection, schedule: Q01DX009 (ip), vehicle: saline with Tween-80 90 % of control | dose: 6.0 mg/kg/injection, schedule: Q01DX009 (ip), vehicle: saline with Tween-80 101 % of control | dose: 12.0 mg/kg/injection, schedule: Q01DX009 (ip), vehicle: saline with Tween-80 98 % of control | dose: 12.5 mg/kg/injection, schedule: Q01DX009 (ip), vehicle: saline with Tween-80 100 % of control

CS(=O)(=O)Oc1ccc2cc(Br)ccc2c1
inactive: [1] 102 % of control | [2] 100 % of control | [3] 107 % of control

COc1c(OCC=C(C)C)cc2c(c1O)c(=O)c1ccccc1n2C
inactive: [1] 100 % of control | [2] 93 % of control | [3] 98 % of control

C=C(Cl)CN(CCCC(=O)O)c1cccc(OC)c1
inactive: [12] 89 % of control | dose: 100.0 mg/kg/injection, schedule: Q04DX003 (ip), vehicle: other 100 % of control | [13] 95 % of control | dose: 200.0 mg/kg/injection, schedule: Q04DX003 (ip), vehicle: other 98 % of control | [14] 97 % of control | dose: 400.0 mg/kg/injection, schedule: Q04DX003 (ip), vehicle: other 100 % of control

CCOC(=O)/C=C(\C)CO (tested in a mixture with another compound)
inactive: dose: 50.0 mg/kg/injection, schedule: Q01DX009 (ip), vehicle: saline with Tween-80 93 % of control | [12] 93 % of control | [13] 101 % of control

O=C(Nc1ccc([N+](=O)[O-])cc1Cl)Oc1ccc(OCc2ccccc2)cc1
inactive: [7] 91 % of control | [8] 91 % of control | dose: 400.0 mg/kg/injection, schedule: Q04DX003 (ip), vehicle: Klucel (hydroxypropylcellulose) (HPC) 96 % of control

O=C(NS(=O)(=O)c1ccc(Cl)cc1)c1cccc2ccccc12
inactive: [12] 91 % of control

NC(=O)C1(c2ccccc2)CC1
inactive: [15] 100 % of control | [16] 88 % of control | [17] 103 % of control | [18] 93 % of control | [19] 107 % of control

CC1=CC(=O)NP(=O)(Oc2ccc3ccccc3c2)N1 (configuration not stated)
inactive: dose: 50.0 mg/kg/injection, schedule: Q01DX005 (ip), vehicle: other 95 % of control | dose: 100.0 mg/kg/injection, schedule: Q01DX005 (ip), vehicle: other 96 % of control | dose: 200.0 mg/kg/injection, schedule: Q01DX005 (ip), vehicle: other 95 % of control | dose: 400.0 mg/kg/injection, schedule: Q01DX005 (ip), vehicle: other 92 % of control

CCCCOC(=O)c1ccc(NC(=O)CCC(C)Cl)cc1 (configuration not stated)
inactive: [16] 94 % of control | [18] 90 % of control | [19] 92 % of control

COc1cccc(/C=C(/SC)S(C)=O)c1OC (configuration not stated)
inactive: [16] 105 % of control | [18] 106 % of control | [19] 102 % of control

O=S(=O)(O)CCBr
inactive: dose: 50.0 mg/kg/injection, schedule: Q01DX001 (ip), vehicle: saline 108 % of control | dose: 100.0 mg/kg/injection, schedule: Q01DX001 (ip), vehicle: saline 96 % of control and 104 % of control | [15] 97 % of control | dose: 200.0 mg/kg/injection, schedule: Q01DX001 (ip), vehicle: saline 101 % of control and 108 % of control | [17] 96 % of control | dose: 400.0 mg/kg/injection, schedule: Q01DX001 (ip), vehicle: saline 104 % of control and 106 % of control | dose: 400.0 mg/kg/injection, schedule: Q01DX009 (ip), vehicle: saline 108 % of control

Cc1cccc(Br)[n+]1[O-]
inactive: dose: 50.0 mg/kg/injection, schedule: Q01DX009 (ip), vehicle: saline 110 % of control | [15] 112 % of control | [16] 102 % of control | [18] 97 % of control

COc1ccc(/C=C/C(=O)c2cc(O)cc(OC)c2)cc1
inactive: [12] 102 % of control | [4] 100 % of control | [13] 94 % of control | [5] 108 % of control | [14] 94 % of control | [6] 95 % of control

CC(C)(C)c1ccc(SC(=O)NCCCl)cc1
inactive: dose: 20.0 mg/kg/injection, schedule: Q04DX003 (ip), vehicle: Klucel (hydroxypropylcellulose) (HPC) 97 % of control | dose: 40.0 mg/kg/injection, schedule: Q04DX003 (ip), vehicle: Klucel (hydroxypropylcellulose) (HPC) 98 % of control | dose: 80.0 mg/kg/injection, schedule: Q04DX003 (ip), vehicle: Klucel (hydroxypropylcellulose) (HPC) 90 % of control | [7] 106 % of control | [8] 91 % of control

COc1ccc(C2C3CC4C(OC(=O)C42)C3I)cc1 (configuration not stated)
inactive: [12] 97 % of control | [4] 95 % of control | [13] 98 % of control | [5] 95 % of control | [14] 88 % of control | [6] 87 % of control
